Data taken from ChEMBL document CHEMBL4371077, “Cyclic tripeptide-based potent human SIRT7 inhibitors” (Bioorg Med Chem Lett, 2019).
Residues, ends and D or L forms follow the SMILES beside them.

Key:
[1] = biological target: T1, NAD-dependent protein deacetylase sirtuin-2 (Homo sapiens, UniProt Q8IXJ6); test: Inhibition of deacetylation activity of recombinant human N-terminal His6-tagged SIRT2 (2 to 389 residues) expressed in Escherichia coli using H2N-HK-[Nepsilon-acetyl-lysine]-LM-COOH as substrate measured after 12 mins by HPLC analysis
T1 sequence (Q8IXJ6 whole entry): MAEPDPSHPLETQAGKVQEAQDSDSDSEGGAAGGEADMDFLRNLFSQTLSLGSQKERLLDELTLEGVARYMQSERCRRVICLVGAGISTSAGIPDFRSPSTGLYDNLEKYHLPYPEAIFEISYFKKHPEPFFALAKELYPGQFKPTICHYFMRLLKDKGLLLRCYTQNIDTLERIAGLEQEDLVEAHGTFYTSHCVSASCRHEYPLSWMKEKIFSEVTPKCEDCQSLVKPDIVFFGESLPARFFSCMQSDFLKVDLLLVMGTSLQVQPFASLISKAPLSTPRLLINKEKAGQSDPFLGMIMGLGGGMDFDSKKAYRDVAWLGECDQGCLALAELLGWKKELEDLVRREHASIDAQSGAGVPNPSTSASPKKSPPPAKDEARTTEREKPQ

[2] = biological target: NAD-dependent protein deacylase sirtuin-6 (Homo sapiens, UniProt Q8N6T7); test: Inhibition of demyristoylation activity of recombinant human full length N-terminal His6-tagged SIRT6 expressed in Escherichia coli using H2N-EALPK-[Nepsilon-myristoyl-lysine]-TGGPQ-CONH2 as substrate measured after 12 mins by HPLC analysis
[3] = biological target: T2, NAD-dependent protein deacetylase sirtuin-1 (Homo sapiens, UniProt Q96EB6); test: Inhibition of recombinant human SIRT1 deacetylase activity using H2N-HK-[Nepsilon-acetyl-lysine]-LM-COOH as substrate measured after 10 mins by HPLC analysis
T2 sequence (Q96EB6 whole entry): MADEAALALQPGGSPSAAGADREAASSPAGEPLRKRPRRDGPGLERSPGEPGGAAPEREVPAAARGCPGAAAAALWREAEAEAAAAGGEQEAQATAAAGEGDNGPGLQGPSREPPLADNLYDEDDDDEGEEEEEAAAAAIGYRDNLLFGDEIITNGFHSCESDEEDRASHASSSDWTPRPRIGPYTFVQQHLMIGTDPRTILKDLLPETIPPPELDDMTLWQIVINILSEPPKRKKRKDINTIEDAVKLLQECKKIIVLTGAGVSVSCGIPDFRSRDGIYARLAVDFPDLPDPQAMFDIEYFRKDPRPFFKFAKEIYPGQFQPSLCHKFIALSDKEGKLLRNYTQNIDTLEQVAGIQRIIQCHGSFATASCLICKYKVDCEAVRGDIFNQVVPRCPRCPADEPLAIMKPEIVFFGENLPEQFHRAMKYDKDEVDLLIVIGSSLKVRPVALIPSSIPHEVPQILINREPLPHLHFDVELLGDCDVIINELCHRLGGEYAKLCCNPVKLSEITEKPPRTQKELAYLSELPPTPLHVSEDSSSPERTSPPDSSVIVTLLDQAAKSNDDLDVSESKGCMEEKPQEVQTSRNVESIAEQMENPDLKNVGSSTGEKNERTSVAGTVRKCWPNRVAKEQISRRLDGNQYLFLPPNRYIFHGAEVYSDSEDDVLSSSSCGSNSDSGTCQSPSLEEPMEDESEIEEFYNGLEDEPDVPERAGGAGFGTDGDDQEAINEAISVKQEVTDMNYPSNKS

[4] = biological target: T3, NAD-dependent protein deacetylase sirtuin-3, mitochondrial (Homo sapiens, UniProt Q9NTG7); test: Inhibition of deacetylation activity of recombinant human N-terminal His6-tagged SIRT3 (101 to 399 residues) expressed in Escherichia coli using H2N-HK-[Nepsilon-acetyl-lysine]-LM-COOH as substrate measured after 10 mins by HPLC analysis
T3 sequence (Q9NTG7 whole entry): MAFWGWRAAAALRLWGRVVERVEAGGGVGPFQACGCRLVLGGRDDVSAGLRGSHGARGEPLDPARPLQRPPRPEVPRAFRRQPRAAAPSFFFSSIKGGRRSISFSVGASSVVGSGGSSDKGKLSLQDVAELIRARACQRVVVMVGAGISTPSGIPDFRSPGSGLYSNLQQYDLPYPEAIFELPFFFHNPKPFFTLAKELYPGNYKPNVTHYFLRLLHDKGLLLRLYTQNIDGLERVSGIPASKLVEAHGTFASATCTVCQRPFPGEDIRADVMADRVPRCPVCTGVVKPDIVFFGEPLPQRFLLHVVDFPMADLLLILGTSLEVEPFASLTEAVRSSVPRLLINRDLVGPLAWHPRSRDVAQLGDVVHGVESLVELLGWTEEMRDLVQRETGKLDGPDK

[5] = Proteolytic stability of the compound assessed as Streptomyces griseus pronase-mediated compound hydrolysis by measuring parent compound remaining after 6 mins by HPLC method; format: ADME; conditions: read-out: Stability
[6] = biological target: T4, NAD-dependent protein deacetylase sirtuin-7 (Homo sapiens, UniProt Q9NRC8); test: Inhibition of tRNA-activated deacetylation activity of recombinant human full length N-terminal His6-tagged SIRT7 expressed in Escherichia coli using H2N-GGKAPR-[Nepsilon-acetyl-lysine]-QLATKA-CONH2 as substrate measured after 30 mins by HPLC analysis
T4 sequence (Q9NRC8 whole entry): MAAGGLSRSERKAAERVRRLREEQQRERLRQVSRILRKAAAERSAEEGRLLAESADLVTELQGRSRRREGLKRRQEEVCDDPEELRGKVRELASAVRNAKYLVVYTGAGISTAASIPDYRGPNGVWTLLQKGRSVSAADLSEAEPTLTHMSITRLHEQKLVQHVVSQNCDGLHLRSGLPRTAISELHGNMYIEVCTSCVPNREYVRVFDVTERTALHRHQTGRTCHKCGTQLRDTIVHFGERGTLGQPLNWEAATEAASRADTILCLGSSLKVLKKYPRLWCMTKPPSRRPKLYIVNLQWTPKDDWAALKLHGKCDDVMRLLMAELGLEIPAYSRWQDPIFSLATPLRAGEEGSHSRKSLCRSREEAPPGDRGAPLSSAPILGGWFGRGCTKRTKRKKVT

[7] = biological target: NAD-dependent protein deacylase sirtuin-5, mitochondrial (Homo sapiens, UniProt Q9NXA8); test: Inhibition of desuccinylation activity of recombinant human full length N-terminal GST-tagged SIRT5 expressed in Escherichia coli using CH3CONH-AR-[Nepsilon-succinyl-lysine]-ST-CONH2 as substrate measured after 5 mins by HPLC analysis
NAD-dependent protein deacylase sirtuin-5, mitochondrial, sequence (Q9NXA8 whole entry): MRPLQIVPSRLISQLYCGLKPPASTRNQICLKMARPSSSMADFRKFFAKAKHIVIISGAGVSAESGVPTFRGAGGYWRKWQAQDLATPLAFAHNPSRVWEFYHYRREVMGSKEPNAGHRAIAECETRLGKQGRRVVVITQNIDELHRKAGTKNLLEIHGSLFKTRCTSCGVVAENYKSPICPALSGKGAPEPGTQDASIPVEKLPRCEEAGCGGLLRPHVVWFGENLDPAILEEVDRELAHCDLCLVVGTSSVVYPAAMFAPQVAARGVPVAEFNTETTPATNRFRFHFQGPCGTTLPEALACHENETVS

NAD-dependent protein deacylase sirtuin-6, sequence (Q8N6T7 whole entry): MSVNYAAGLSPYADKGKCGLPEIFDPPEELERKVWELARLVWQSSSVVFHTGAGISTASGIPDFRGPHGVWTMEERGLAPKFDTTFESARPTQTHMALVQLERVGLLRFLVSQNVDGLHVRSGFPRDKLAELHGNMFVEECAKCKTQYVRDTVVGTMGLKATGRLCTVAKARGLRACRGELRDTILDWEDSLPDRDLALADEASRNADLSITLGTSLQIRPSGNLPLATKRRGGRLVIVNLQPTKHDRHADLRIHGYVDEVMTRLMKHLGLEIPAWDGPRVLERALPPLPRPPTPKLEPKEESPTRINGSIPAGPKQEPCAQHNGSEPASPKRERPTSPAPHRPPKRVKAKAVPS

CCCCCCCCCCCCNC(=O)CCCCC[C@@H]1NC(=O)[C@H](CCCNC(=N)N)NC(=O)CNC(=O)CCC(=O)NCC(=O)NCCCC[C@@H](C(N)=O)NC1=O
IC50 [1]: 0.55 µM
IC50 [2]: 11.2 µM
IC50 [3]: 4.3 µM
IC50 [4]: 4.2 µM
remaining at 0.1 h [5]: 89.9%
IC50 [6]: 5 µM
IC50 [7]: > 200 µM

CCCCCCCCCCCCNC(=S)NCCCC[C@@H]1NC(=O)[C@H](CCCNC(=N)N)NC(=O)CNC(=O)CCC(=O)NCC(=O)NCCCC[C@@H](C(N)=O)NC1=O
IC50 [1]: 10.3 µM
IC50 [2]: 7.9 µM
IC50 [3]: 1.8 µM
IC50 [4]: 1.6 µM
remaining at 0.1 h [5]: 55.7%
IC50 [6]: 11.1 µM
IC50 [7]: > 150 µM

CCCCCCCCCCCCCCNC(=S)NCCCC[C@@H]1NC(=O)[C@H](CCCNC(=N)N)NC(=O)CNC(=O)CCC(=O)NCC(=O)NCCCC[C@@H](C(N)=O)NC1=O
IC50 [6]: 85.3 µM

CSCC[C@H](NC(=O)[C@H](CC(C)C)NC(=O)[C@H](CCCCNC(C)=O)NC(=O)[C@H](CCCCN)NC(=O)[C@@H](N)Cc1cnc[nH]1)C(=O)O (H-HKK(Ac)LM-OH)
remaining at 0.1 h [5]: 51.1%
